In the kinase profiling compilation of Christmann-Franck et al. (2016):

How the values were obtained:
Experiment in all cases: KINOMEscan competition binding
Details in all cases: compound 10.0 µM
MAP2K3 (human) = MAP2K3 (human) (UniProt P46734)
PRKACA (human) = PRKACA (human) (UniProt P17612)
TEC (human) = TEC (human) (UniProt P42680)
IRAK3 (human) = IRAK3 (human) (UniProt Q9Y616)
CDK8 (human) = CDK8 (human) (UniProt P49336)
CAMK4 (human) = CAMK4 (human) (UniProt Q16566)
CDK11B (human) = CDK11B (human) (UniProt P21127)
EPHB2 (human) = EPHB2 (human) (UniProt P29323)
MAP2K6 (human) = MAP2K6 (human) (UniProt P52564)
STK33 (human) = STK33 (human) (UniProt Q9BYT3)
[1] = biological target: TYK2 JH2 pseudokinase (human) (UniProt P29597)
STK11 (human) = STK11 (human) (UniProt Q15831)
CDKL2 (human) = CDKL2 (human) (UniProt Q92772)
MAP3K3 (human) = MAP3K3 (human) (UniProt Q99759)
RET (human) = RET (human) (UniProt P07949)
CSNK1D (human) = CSNK1D (human) (UniProt P48730)
MLTK (human) = MLTK (human) (UniProt Q9NYL2)
PDGFRB (human) = PDGFRB (human) (UniProt P09619)
CAMKK1 (human) = CAMKK1 (human) (UniProt Q8N5S9)
MYO3B (human) = MYO3B (human) (UniProt Q8WXR4)
PIK3CD (human) = PIK3CD (human) (UniProt O00329)
[2] = system: KIT (human), P10721 [D816V]
BMPR1A (human) = BMPR1A (human) (UniProt P36894)
CDK17 (human) = CDK17 (human) (UniProt Q00537)
MYLK (human) = MYLK (human) (UniProt Q15746)
[3] = system: ABL1 (human), P00519 [M351T]
EIF2AK2 (human) = EIF2AK2 (human) (UniProt P19525)
ABL2 (human) = ABL2 (human) (UniProt P42684)
CDC42BPB (human) = CDC42BPB (human) (UniProt Q9Y5S2)
SRC (human) = SRC (human) (UniProt P12931)
PIM1 (human) = PIM1 (human) (UniProt P11309)
PAK4 (human) = PAK4 (human) (UniProt O96013)
PRKD2 (human) = PRKD2 (human) (UniProt Q9BZL6)
MARK1 (human) = MARK1 (human) (UniProt Q9P0L2)
NEK9 (human) = NEK9 (human) (UniProt Q8TD19)
CDK18 (human) = CDK18 (human) (UniProt Q07002)
FYN (human) = FYN (human) (UniProt P06241)
MAPKAPK5 (human) = MAPKAPK5 (human) (UniProt Q8IW41)
RPS6KA1 KD1 (human) = RPS6KA1 KD1 (human) (UniProt Q15418)
BMPR2 (human) = BMPR2 (human) (UniProt Q13873)

Sequence of TEC (human) (P42680 whole entry, looked up): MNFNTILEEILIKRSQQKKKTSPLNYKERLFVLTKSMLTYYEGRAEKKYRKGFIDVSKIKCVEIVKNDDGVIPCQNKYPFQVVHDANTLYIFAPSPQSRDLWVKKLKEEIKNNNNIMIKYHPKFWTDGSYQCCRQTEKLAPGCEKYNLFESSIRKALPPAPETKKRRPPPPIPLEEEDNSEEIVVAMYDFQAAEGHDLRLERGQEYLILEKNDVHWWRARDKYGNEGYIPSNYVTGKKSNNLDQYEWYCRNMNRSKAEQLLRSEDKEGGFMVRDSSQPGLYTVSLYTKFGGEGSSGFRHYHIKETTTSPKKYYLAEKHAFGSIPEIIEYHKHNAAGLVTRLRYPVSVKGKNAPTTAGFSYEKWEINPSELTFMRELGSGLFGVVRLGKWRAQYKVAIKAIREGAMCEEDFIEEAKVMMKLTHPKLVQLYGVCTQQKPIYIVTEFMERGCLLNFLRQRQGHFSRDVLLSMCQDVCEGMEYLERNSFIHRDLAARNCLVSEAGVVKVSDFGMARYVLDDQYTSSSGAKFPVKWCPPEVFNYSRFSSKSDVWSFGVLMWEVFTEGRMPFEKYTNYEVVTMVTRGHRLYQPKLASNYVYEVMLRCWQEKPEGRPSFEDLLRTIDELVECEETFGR
Sequence of EPHB2 (human) (P29323 whole entry, looked up): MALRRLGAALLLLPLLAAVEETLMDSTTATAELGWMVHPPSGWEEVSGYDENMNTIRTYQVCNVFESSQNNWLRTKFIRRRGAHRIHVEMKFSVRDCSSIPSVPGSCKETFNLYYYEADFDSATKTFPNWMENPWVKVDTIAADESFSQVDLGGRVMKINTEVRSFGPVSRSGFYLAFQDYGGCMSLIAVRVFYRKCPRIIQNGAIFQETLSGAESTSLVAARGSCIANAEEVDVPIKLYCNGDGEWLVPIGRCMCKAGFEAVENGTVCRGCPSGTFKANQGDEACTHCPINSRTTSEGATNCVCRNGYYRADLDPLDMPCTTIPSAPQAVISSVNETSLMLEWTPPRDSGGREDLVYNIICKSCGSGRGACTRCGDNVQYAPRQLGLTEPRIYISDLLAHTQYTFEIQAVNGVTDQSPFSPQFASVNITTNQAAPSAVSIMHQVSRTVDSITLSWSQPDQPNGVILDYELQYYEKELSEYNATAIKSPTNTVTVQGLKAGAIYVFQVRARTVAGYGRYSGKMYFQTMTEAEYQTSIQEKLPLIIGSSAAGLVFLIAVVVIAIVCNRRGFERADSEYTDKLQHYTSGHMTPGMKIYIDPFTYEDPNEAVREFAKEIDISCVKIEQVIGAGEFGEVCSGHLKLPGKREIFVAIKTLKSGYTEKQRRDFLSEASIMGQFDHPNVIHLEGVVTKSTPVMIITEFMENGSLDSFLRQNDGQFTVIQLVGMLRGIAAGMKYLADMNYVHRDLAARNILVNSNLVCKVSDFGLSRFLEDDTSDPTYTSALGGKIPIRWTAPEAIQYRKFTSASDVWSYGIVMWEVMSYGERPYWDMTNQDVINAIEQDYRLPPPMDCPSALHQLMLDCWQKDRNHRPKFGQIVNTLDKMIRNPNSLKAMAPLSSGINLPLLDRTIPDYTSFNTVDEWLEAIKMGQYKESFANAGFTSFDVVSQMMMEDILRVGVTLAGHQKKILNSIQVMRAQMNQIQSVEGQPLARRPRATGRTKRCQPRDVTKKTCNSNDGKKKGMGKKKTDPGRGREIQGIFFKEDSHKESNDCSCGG
Sequence of PIK3CD (human) (O00329 whole entry, looked up): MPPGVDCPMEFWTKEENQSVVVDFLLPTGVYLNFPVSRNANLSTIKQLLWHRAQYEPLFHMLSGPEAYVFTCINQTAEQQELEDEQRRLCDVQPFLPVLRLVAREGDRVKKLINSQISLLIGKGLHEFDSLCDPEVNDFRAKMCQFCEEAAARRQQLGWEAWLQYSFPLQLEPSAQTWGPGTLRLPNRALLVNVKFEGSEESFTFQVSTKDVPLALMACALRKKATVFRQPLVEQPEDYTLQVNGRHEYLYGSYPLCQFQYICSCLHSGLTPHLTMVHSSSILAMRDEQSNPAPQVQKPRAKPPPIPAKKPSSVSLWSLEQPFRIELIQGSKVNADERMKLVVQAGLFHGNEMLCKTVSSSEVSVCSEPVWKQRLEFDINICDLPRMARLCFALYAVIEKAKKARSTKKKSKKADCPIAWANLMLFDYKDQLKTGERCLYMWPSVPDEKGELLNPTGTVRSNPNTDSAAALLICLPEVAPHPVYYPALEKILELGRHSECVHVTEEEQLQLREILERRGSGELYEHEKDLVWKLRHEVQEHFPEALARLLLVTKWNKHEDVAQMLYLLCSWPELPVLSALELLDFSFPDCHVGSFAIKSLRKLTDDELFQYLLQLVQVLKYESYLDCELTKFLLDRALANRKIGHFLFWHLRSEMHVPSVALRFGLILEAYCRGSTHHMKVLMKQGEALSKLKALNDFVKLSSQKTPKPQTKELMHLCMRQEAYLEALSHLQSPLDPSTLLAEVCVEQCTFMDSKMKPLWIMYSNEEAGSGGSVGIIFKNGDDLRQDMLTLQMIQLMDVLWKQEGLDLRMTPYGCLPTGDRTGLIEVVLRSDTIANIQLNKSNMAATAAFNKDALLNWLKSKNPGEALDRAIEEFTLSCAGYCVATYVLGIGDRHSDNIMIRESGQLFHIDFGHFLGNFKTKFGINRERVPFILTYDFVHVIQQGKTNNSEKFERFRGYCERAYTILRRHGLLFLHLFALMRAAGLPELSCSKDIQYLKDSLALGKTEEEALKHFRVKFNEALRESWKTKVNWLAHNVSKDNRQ
Sequence of IRAK3 (human) (Q9Y616 whole entry, looked up): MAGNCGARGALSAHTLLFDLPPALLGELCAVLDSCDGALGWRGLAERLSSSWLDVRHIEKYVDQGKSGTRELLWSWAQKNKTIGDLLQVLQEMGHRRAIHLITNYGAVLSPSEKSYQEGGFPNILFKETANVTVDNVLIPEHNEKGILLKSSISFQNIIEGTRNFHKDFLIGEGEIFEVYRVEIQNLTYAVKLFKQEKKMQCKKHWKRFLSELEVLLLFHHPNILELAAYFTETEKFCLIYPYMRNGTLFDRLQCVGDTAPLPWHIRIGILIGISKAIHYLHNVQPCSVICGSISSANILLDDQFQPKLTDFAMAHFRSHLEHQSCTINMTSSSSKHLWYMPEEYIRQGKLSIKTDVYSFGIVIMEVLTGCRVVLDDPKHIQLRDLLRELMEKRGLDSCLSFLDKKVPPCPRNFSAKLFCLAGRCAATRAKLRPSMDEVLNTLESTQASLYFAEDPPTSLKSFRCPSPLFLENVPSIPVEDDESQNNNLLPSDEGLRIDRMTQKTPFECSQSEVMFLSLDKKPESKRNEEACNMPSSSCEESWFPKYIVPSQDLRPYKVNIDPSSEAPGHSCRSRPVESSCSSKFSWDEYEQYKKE
Sequence of CDC42BPB (human) (Q9Y5S2 whole entry, looked up): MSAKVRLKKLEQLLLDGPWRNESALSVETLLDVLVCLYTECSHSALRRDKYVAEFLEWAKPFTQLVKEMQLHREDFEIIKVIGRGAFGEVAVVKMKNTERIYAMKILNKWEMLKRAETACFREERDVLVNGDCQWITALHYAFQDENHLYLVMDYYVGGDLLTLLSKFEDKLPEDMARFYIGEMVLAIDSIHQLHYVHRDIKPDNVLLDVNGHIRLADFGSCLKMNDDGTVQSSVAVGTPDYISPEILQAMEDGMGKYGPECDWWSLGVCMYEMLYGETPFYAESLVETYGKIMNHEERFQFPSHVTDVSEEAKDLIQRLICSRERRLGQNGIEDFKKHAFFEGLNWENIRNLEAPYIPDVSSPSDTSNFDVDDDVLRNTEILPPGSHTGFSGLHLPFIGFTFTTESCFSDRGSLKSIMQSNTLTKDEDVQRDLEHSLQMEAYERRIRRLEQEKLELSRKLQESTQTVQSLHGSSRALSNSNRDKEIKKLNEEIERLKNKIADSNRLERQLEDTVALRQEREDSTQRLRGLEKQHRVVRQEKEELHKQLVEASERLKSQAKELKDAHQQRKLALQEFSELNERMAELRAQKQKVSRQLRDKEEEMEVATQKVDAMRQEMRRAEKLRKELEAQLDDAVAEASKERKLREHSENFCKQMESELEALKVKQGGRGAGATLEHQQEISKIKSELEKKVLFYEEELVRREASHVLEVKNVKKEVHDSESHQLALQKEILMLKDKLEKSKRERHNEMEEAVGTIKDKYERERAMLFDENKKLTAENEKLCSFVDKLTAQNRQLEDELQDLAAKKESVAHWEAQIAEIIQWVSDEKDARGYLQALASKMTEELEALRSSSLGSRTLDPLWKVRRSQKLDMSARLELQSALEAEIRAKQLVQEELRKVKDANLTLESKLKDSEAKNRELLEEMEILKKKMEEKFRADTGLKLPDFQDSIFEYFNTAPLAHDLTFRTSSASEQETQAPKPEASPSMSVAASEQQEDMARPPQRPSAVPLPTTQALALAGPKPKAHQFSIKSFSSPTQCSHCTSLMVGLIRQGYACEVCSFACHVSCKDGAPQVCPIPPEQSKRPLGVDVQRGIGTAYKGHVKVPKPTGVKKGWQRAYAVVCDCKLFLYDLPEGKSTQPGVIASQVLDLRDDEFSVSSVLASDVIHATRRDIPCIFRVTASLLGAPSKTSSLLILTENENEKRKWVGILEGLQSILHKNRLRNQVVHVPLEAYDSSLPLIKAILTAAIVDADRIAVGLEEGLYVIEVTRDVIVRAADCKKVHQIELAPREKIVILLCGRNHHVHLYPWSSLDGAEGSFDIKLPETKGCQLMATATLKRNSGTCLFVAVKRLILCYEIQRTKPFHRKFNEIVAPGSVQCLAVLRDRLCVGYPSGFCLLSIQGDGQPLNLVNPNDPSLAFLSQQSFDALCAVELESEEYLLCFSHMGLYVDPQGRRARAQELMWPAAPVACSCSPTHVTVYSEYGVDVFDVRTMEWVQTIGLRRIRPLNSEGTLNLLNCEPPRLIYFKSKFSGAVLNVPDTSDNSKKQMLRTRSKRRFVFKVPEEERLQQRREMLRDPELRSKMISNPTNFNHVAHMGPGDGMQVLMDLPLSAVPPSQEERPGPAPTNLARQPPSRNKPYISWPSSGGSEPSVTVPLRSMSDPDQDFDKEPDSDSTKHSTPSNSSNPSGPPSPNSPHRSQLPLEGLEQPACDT

SMILES	kinase still bound, per cent of control (MAP2K3 (human))	kinase still bound, per cent of control (PRKACA (human))	kinase still bound, per cent of control (TEC (human))	kinase still bound, per cent of control (IRAK3 (human))	kinase still bound, per cent of control (CDK8 (human))	kinase still bound, per cent of control (CAMK4 (human))	kinase still bound, per cent of control (CDK11B (human))	kinase still bound, per cent of control (EPHB2 (human))	kinase still bound, per cent of control (MAP2K6 (human))	kinase still bound, per cent of control (STK33 (human))	kinase still bound, per cent of control [1]	kinase still bound, per cent of control (STK11 (human))	kinase still bound, per cent of control (CDKL2 (human))	kinase still bound, per cent of control (MAP3K3 (human))	kinase still bound, per cent of control (RET (human))	kinase still bound, per cent of control (CSNK1D (human))	kinase still bound, per cent of control (MLTK (human))	kinase still bound, per cent of control (PDGFRB (human))	kinase still bound, per cent of control (CAMKK1 (human))	kinase still bound, per cent of control (MYO3B (human))	other results
COc1cc(C(=O)NC2CCN(C)CC2)ccc1Nc1ncc2c(n1)N(C1CCCC1)C(C)CC(=O)N2C (stereo not given)	100%	100%	100%	100%	100%	100%	100%	100%	100%	3.6%	100%	100%	100%	100%	100%	100%	100%	100%	100%	100%	kinase still bound, per cent of control (PIK3CD (human)): 100%; kinase still bound, per cent of control [2]: 100%; kinase still bound, per cent of control (BMPR1A (human)): 100%; kinase still bound, per cent of control (CDK17 (human)): 100%; kinase still bound, per cent of control (MYLK (human)): 2.8%; kinase still bound, per cent of control [3]: 100%; kinase still bound, per cent of control (EIF2AK2 (human)): 100%; kinase still bound, per cent of control (ABL2 (human)): 100%; kinase still bound, per cent of control (CDC42BPB (human)): 100%; kinase still bound, per cent of control (SRC (human)): 100%; kinase still bound, per cent of control (PIM1 (human)): 100%; kinase still bound, per cent of control (PAK4 (human)): 100%; kinase still bound, per cent of control (PRKD2 (human)): 100%; kinase still bound, per cent of control (MARK1 (human)): 100%; kinase still bound, per cent of control (NEK9 (human)): 100%; kinase still bound, per cent of control (CDK18 (human)): 100%; kinase still bound, per cent of control (FYN (human)): 100%; kinase still bound, per cent of control (MAPKAPK5 (human)): 100%; kinase still bound, per cent of control (RPS6KA1 KD1 (human)): 100%; kinase still bound, per cent of control (BMPR2 (human)): 100%
O=C(NC1CC1)c1cccc(-c2ccc3c(NC(=O)C4CC4)n[nH]c3c2)c1	33%	100%	95%	69%	76%	100%	97%	98%	55%	100%	32%	45%	8.6%	85%	86%	78%	100%	24%	37%	93%	kinase still bound, per cent of control (PIK3CD (human)): 85%; kinase still bound, per cent of control [2]: 97%; kinase still bound, per cent of control (BMPR1A (human)): 76%; kinase still bound, per cent of control (CDK17 (human)): 37%; kinase still bound, per cent of control (MYLK (human)): 63%; kinase still bound, per cent of control [3]: 57%; kinase still bound, per cent of control (EIF2AK2 (human)): 85%; kinase still bound, per cent of control (ABL2 (human)): 100%; kinase still bound, per cent of control (CDC42BPB (human)): 76%; kinase still bound, per cent of control (SRC (human)): 100%; kinase still bound, per cent of control (PIM1 (human)): 70%; kinase still bound, per cent of control (PAK4 (human)): 79%; kinase still bound, per cent of control (PRKD2 (human)): 100%; kinase still bound, per cent of control (MARK1 (human)): 96%; kinase still bound, per cent of control (NEK9 (human)): 100%; kinase still bound, per cent of control (CDK18 (human)): 58%; kinase still bound, per cent of control (FYN (human)): 79%; kinase still bound, per cent of control (MAPKAPK5 (human)): 99%; kinase still bound, per cent of control (RPS6KA1 KD1 (human)): 81%; kinase still bound, per cent of control (BMPR2 (human)): 91%
